From patent US20120108667A1, “HYDROXY CERAMIDES AND ANALOGS THEREOF AND THEIR USE FOR PREVENTING OR TREATING CANCER” (priority 2010, published 2012)
“And” between values parts separate entries of the source, which are not always exact repeats. Equal values may be shown once. Read-outs that look alike come from different tables or passages of the source. Blank lines part the entries; values can stand above or below the compound they belong to.

Key:
HL60 leukemia cells = conditions: previously reported; cited from earlier work
[1] = system: endogenous SPLs in MCF7 cells; assay: LC-MS/MS analysis of endogenous SPLs in treated MCF7 cells; type: cell-based, human; conditions: for elevation of cellular dhCer: 40 μM treatment
Procedure: (§1) MCF7 cells (breast adenocarcinoma, pleural effusion) were purchased from American type Culture Collection (ATCC, Rockville, Md., USA) and grown in RPMI 1640 media (Life Technologies, Inc) supplemented with 10% fetal calf serum (FCS, Summit Biotechnology, CO, USA) and maintained under standard incubator conditions (humidified atmosphere 95% air, 5% CO2, 37° C.). A parallel set of cells was used to determine cell proliferation and to prepare lipid extracts for MS analysis.
(§2) Advanced analyses were performed on a Thermo Finnigan TSQ 7000, triple-stage quadrupole mass spectrometer operating in a Multiple Reaction Monitoring (MRM) positive ionization mode as described (J. Bielawski, et al., Methods 39 (2006), p. 82; J. Bielawski, et al., Methods Mol. Biol. 579 (2009), p. 443). Quantitative analysis of the cellular level of 2′-OH—C6-Cers/dhCers and C6-Cer/dhCer was based on the calibration curves generated by spiking an artificial matrix with known amounts of target standards and an equal amount of the internal standard (IS). The target analyte to IS peak area ratios from the samples were similarly normalized to their respective IS and compared to the calibration curves using a linear regression model. Final results were expressed as the level of the particular SPLs/phospholipids (Pi) determined from the Bligh & Dyer lipid extract and expressed as SPLs/Pi (pmol/nmol).

MCF7 cells [2] = assay: Cell proliferation of MCF7 cells (cell counts, Trypan blue, 24 h); type: cell-based, human; conditions: for IC50: read-out: IC50, MCF7 cell growth inhibition
Procedure: as §1
MCF7 cells were seeded at a density of ˜50% (corresponding to 1×10^6 cells) in 10 ml of 10% FCS and, after an overnight incubation, were treated with the compounds at (0-50 μM) in ethanol (<0.1%) and the changes in cell numbers after 24 h were determined and expressed as a percentage of the untreated controls. Briefly, media were removed, cells were washed twice with PBS, detached using 1% Trypsin and centrifuged at 800 rpm. Cell pellets were resuspended in PBS and Trypan blue (Sigma Chemicals, St. Louis, Mo., USA) was added (1:1 dilution). Under a light microscope, the percentage of unstained and stained cells was assessed.

MCF7 cells [3] = assay: LC-MS/MS cellular levels of exogenously added compounds in MCF7 cells; type: cell-based, human; conditions: for cellular level of the analog, time course / cellular uptake, early level / cellular level of the analog, concentration dependent: MCF7 cells; for cellular level of the analog, time course / cellular uptake, early level: 10 μM; for cellular level of the analog, time course: up to 24 h; for cellular uptake, early level: up to ~1 h; for cellular accumulation: MCF7 cells (Example 6); for cellular level of the analog, concentration dependent: 24 h
Procedure: as §1, §2

dhCer desaturase = biological target: T1, dhCer desaturase (Homo sapiens, UniProt O15121); assay: Conversion of C6-dhCer analogs to their unsaturated analogs in MCF7 cells; type: cell-based; conditions: 24 h treatment
T1 construct: endogenous in cells; host or cells: MCF7
T1 sequence (O15121 1-323): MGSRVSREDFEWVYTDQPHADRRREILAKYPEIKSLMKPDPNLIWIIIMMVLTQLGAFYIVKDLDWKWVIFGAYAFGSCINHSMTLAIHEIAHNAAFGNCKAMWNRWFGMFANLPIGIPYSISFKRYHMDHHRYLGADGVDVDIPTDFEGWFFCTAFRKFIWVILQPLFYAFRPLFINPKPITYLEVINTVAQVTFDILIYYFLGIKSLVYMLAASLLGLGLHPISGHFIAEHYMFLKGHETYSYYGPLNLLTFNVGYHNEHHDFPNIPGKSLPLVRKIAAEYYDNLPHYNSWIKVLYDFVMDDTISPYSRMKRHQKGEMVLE
Procedure: as §2

[4] = 10 μM, time-dependent experiment, data not shown

IC50 (MCF7 cells [2]; listed as (2′S)-2′-OH—C6-dhCer): ~12 µM and 12 µM
conversion to the corresponding unsaturated analog (dhCer desaturase): up to 12%
Structure (SMILES): CCCCCCCCCCCCCCC[C@@H](O)[C@H](CO)NC(=O)[C@@H](O)CCCC [LCL466, (2S,3R,2′S)-2′-Hydroxy-C6-dihydroceramide]
effect on Cer species, time dependent ([1]; 10 μM): elevated all Cer species
cellular Cers level, time dependent ([1]; 10 μM, at 24 h): the same as for 5 h treatment
cellular dhCers level, time dependent ([1]; 10 μM, at 24 h): the same as for 5 h treatment
effect on dhCer species, time dependent ([1]; 10 μM, data not shown): elevated all dhCer species
cellular Cers level, time dependent ([1]; 10 μM, up to 5 h): 200%
cellular dhCers level, time dependent ([1]; 10 μM, up to 5 h): 200%
elevation of cellular dhCer ([1]; 24 h): ~19 fold
increase of cellular dhSph ([1]; 40 μM, 24 h): ~16 fold
cellular Sph level, concentration dependent ([1]; 24 h): elevation of cellular Sph
elevation of dhC16-Cer (C16-dhCer) ([1]; 24 h, results not shown): up to 25 fold
C16-Cer/C16-dhCer fold ratio ([1]; MCF7 cells): 50/25
effectiveness as inducer of cellular dhCers, Cers, dhSph and Sph ([1]; MCF7 cells): three time more effective than C6-dhCer
cellular level of the analog, time course (MCF7 cells [3]): elevated up to 5 h reaching the level of C6-dhCer and remaining constant up to 24 h

IC50 (MCF7 cells [2]; listed as (2′R)-2′-OH—C6-dhCer): ~8 µM and 8 µM
conversion to the corresponding unsaturated analog (dhCer desaturase): up to 5%
Structure (SMILES): CCCCCCCCCCCCCCC[C@@H](O)[C@H](CO)NC(=O)[C@H](O)CCCC [LCL467, (2S,3R,2′R)-2′-Hydroxy-C6-dihydroceramide]
endogenous Cer (total) level ([1]; 10 μM, 24 h, concentration-dependent experiment): ~150%
cellular Cers level, time dependent ([1]; 10 μM, at 24 h): ~140%
cellular dhCers level, time dependent ([1]; 10 μM, at 24 h): remained unchanged
decrease of long chain dhCers [1, 4]: 10-25%
increase of very long chain dhCers [1, 4]: 20-30%
cellular Cers level, time dependent ([1]; 10 μM, up to 5 h): did not affect
cellular dhCers level, time dependent ([1]; 10 μM, up to 5 h): did not affect
decrease of C16-Cer ([1]; 1-5 μM, 24 h): up to 60%
cellular Sph level, concentration dependent ([1]; 24 h): ~80%
effect on cellular dhSph ([1]; 24 h): did not affect
C14-dhCer level (decrease to) ([1]; 24 h, results not shown): 25 % control
elevation of dhC16-Cer (C16-dhCer) ([1]; 24 h, results not shown): did not elevate
effectiveness as inducer of cellular dhCers, Cers, dhSph and Sph ([1]; MCF7 cells): not effective
effect on cellular Cer ([1]; up to 5 μM, 24 h): did not affect
effect of 20 μM treatment on cells (MCF7 cells [2]; 20 μM): total cell death
cellular level of the analog, time course (MCF7 cells [3]): showed the lowest level, remaining in a plateau between 2.5-24 h

The remaining lines, values behind:

Structure (SMILES): CCCCCCCCCCCCC/C=C/[C@@H](O)[C@H](CO)NC(=O)[C@H](C)O [(2′S)-2′-OH—C3-Cer]
potency relative to the other isomer (HL60 leukemia cells): much more potent then its (2′R)-isomer

Structure (SMILES): CCCCCCCCCCCCC/C=C/[C@@H](O)[C@H](CO)NC(=O)CCCCC [C6-Cer]
cellular Cers level, time dependent ([1]; 10 μM, at 24 h): 350%
cellular Cers level, time dependent ([1]; 10 μM, up to 5 h): 500%
increase of C14-Cer ([1]; 20 μM treatment, 24 h): ~40 fold
increase of C16-Cer ([1]; 20 μM treatment, 24 h): ~20 fold
increase of C18-Cer ([1]; 20 μM treatment, 24 h): ~80 fold
increase of C24-Cer ([1]; 20 μM treatment, 24 h): ~0.2 fold
increase of C24:1-Cer ([1]; 20 μM treatment, 24 h): fivefold
cellular S1P level ([1]; 20 μM, 24 h): 800%
endogenous Cer (total) level ([1]; 20 μM, 24 h): up to 900%
endogenous Sph level ([1]; 20 μM, 24 h): ≤ 600%
concentration from which all Cer species are elevated ([1]; 24 h): ≥ 5 µM
influence on levels of cellular Cers/dhCers ([1]; MCF7 cells): significantly increased the levels of their cellular long chain homologs
metabolism/conversion to cellular long chain 2′-OH homologs (2′-OHCer analogs) ([1]; MCF7 cells): not converted to the cellular 2′-OHCer analogs
IC50 (MCF7 cells [2]; listed as C6-ceramide): 12 µM
IC50 (MCF7 cells [2]): ~12 µM
cellular level of the analog, time course (MCF7 cells [3]): progressively increased up to 5 h followed by decrease at 24 h
cellular uptake, early level (MCF7 cells [3]): highest levels

Structure (SMILES): CCCCCCCCCCCCCCC[C@@H](O)[C@H](CO)NC(=O)CCCCC [C6-dhCer]
effect on Cer species, time dependent ([1]; 10 μM): elevated all Cer species
effect on cellular Sph, time dependent ([1]; 10 μM): slightly increased
cellular Cers level, time dependent ([1]; 10 μM, at 24 h): 280%
cellular dhCers level, time dependent ([1]; 10 μM, at 24 h): decreased to almost control level
effect on dhCer species, time dependent ([1]; 10 μM, data not shown): elevated all dhCer species
cellular Cers level, time dependent ([1]; 10 μM, up to 5 h): 310%
cellular dhCers level, time dependent ([1]; 10 μM, up to 5 h): 750%
elevation of cellular dhCer ([1]; 24 h): ~7 fold
endogenous Cer level ([1]; 40 μM, 24 h): 550%
increase of cellular dhSph ([1]; 40 μM, 24 h): ~5 fold
elevation of dhC16-Cer (C16-dhCer) ([1]; 24 h, results not shown): ≤ 13 fold
C16-Cer/C16-dhCer fold ratio ([1]; MCF7 cells): 50/13
influence on levels of cellular Cers/dhCers ([1]; MCF7 cells): significantly increased the levels of their cellular long chain homologs
cellular Sph level (decrease to) ([1]; at a low concentration, 24 h): ~70%
effect on cellular dhCers ([1]; up to 10 μM, 24 h): did not induce elevation of cellular dhCers
concentration at which an inhibitory effect on cell growth is caused (MCF7 cells [2]): higher than 10 μM
IC50 (MCF7 cells [2]): ~38 µM and 38 µM
conversion to the corresponding unsaturated analog (dhCer desaturase): 42%
cellular level of the analog, time course (MCF7 cells [3]): followed the curve of C6-Cer, however at a lower rate

Structure (SMILES): CCCCCCCCCCCCC/C=C/[C@@H](O)[C@H](CO)NC(=O)[C@H](O)CCCC [LCL366, (2S,3R,2′R,4E)-2′-Hydroxy-C6-ceramide]
cellular accumulation (MCF7 cells [3]): low cellular accumulation
cellular level of the analog, time course (MCF7 cells [3]): progressively decreased to the lowest level among all tested analogs at 24 h
cellular uptake, early level (MCF7 cells [3]): highest levels
cellular level of the analog, concentration dependent (MCF7 cells [3]): lowest level

Structure (SMILES): CCCCCCCCCCCCC/C=C/[C@@H](O)[C@H](CO)NC(=O)[C@@H](O)CCCC [LCL367, (2S,3R,2′S,4E)-2′-Hydroxy-C6-ceramide]
cellular accumulation (MCF7 cells [3]): higher cellular accumulation
cellular level of the analog, time course (MCF7 cells [3]): elevated up to 2.5 h followed by a small decrease at 5 h and plateau to 24 h
cellular level of the analog, concentration dependent (MCF7 cells [3]): highest level
